Laboratory results as given in patent US12098148B2, “Therapeutic compounds” (C4X Discovery Limited, priority 2018, dated 2024).

How the values were obtained:
[1] = tested on: NQO1 mRNA in BEAS-2B cells; experiment: Beas2B NQO1 mRNA cell based assay; parameters: species or system human; conditions: Homo sapiens, BEAS-2B, 24 h, 24 h compound treatment, increase in NQO1 mRNA vs vehicle (0.1% DMSO), read-out: EC50
How it was run: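 Relative NQO1 transcript level derived by ΔΔCT with human β-actin as internal control, using direct-lysate one-step RT-qPCR. Cells were BEAS-2B, plated overnight then treated with compound for 24 h.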

[2] = biological target: human KEAP1 (N-term, residues 321-609) (Homo sapiens, UniProt Q14145); experiment: biochemical;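 also: fluorescence polarization competition assay of Kelch domain binding to NRF2, 12-point 1:3 dilution series from 10 µM, read after 1 h at room temperature, floor 10 nM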
Chain of human KEAP1 (N-term, residues 321-609) (Q14145 321-609): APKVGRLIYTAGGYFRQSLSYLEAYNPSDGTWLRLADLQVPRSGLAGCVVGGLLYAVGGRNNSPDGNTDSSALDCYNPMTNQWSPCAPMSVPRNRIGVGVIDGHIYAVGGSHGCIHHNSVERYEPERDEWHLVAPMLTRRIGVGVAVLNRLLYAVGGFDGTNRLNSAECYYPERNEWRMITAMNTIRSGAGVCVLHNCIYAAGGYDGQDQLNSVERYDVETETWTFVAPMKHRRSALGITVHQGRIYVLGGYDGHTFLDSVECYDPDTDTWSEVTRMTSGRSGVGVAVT

Row | Compound | IC50 [2] | EC50 [1]
1 | Cn1ccc(COc2ccc(Cl)c3c2[C@@H](CN2CC4(CC4)CC2=O)N(C(=O)[C@@H]2CCCC[C@]2(C)C(=O)O)CC3)cc1=O [Example 148, (1S,2R)-2-((S)-5-chloro-8-((1-methyl-2-oxo-1,2-dihydropyridin-4-yl)methoxy)-1-((6-oxo-5-azaspiro[2.4]heptan-5-yl)methyl)-1,2,3,4-tetrahydroisoquinoline-2-carbonyl)-1-methylcyclohexane-1-carboxylic acid] | 6.6 nM | 22 nM
2 | C[C@@H]1CC(=O)N(C[C@@H]2c3c(OCc4nnn(C)c4C(F)F)ccc(Cl)c3CCN2C(=O)[C@H]2CCCC[C@]2(C)C(=O)O)C1 [Example 149, (1S,2S)-2-((S)-5-chloro-8-((5-(difluoromethyl)-1-methyl-1H-1,2,3-triazol-4-yl)methoxy)-1-(((R)-4-methyl-2-oxopyrrolidin-1-yl)methyl)-1,2,3,4-tetrahydroisoquinoline-2-carbonyl)-1-methylcyclohexane-1-carboxylic acid] | 28 nM | 73 nM
3 | Cn1nnc(COc2ccc(Cl)c3c2[C@@H](CN2CC(C)(C)CC2=O)N(C(=O)[C@@H]2CCCC[C@]2(C)C(=O)O)CC3)c1C(F)F [Example 152, (1S,2R)-2-((S)-5-chloro-8-((5-(difluoromethyl)-1-methyl-1H-1,2,3-triazol-4-yl)methoxy)-1-((4,4-dimethyl-2-oxopyrrolidin-1-yl)methyl)-1,2,3,4-tetrahydroisoquinoline-2-carbonyl)-1-methylcyclohexane-1-carboxylic acid] | 7.2 nM | 10 nM
4 | Cc1onc(COc2ccc(Cl)c3c2[C@@H](CN2CC4(CC4)CC2=O)N(C(=O)[C@@H]2CCCC[C@]2(C)C(=O)O)CC3)c1C(F)(F)F [Example 154, (1S,2R)-2-((S)-5-chloro-8-((5-methyl-4-(trifluoromethyl)isoxazol-3-yl)methoxy)-1-((6-oxo-5-azaspiro[2.4]heptan-5-yl)methyl)-1,2,3,4-tetrahydroisoquinoline-2-carbonyl)-1-methylcyclohexane-1-carboxylic acid] | 9.3 nM | 18 nM
5 | C[C@]1(C(=O)O)CCCC[C@H]1C(=O)N1CCc2c(Cl)ccc(OCc3nnn(CC(F)(F)F)c3C(F)F)c2[C@H]1CN1CCCC1=O [Example 155, (1S,2R)-2-((S)-5-chloro-8-((5-(difluoromethyl)-1-(2,2,2-trifluoroethyl)-1H-1,2,3-triazol-4-yl)methoxy)-1-((2-oxopyrrolidin-1-yl)methyl)-1,2,3,4-tetrahydroisoquinoline-2-carbonyl)-1-methylcyclohexane-1-carboxylic acid] | 16 nM | 4.8 nM
6 | Cc1c(COc2ccc(Cl)c3c2[C@@H](CN2CC4(CC4)CC2=O)N(C(=O)[C@@H]2CCCC[C@]2(C)C(=O)O)CC3)nnn1C [Example 156, (1S,2R)-2-((S)-5-chloro-8-((1,5-dimethyl-1H-1,2,3-triazol-4-yl)methoxy)-1-((6-oxo-5-azaspiro[2.4]heptan-5-yl)methyl)-1,2,3,4-tetrahydroisoquinoline-2-carbonyl)-1-methylcyclohexane-1-carboxylic acid] | 5.1 nM | 0.29 nM
7 | Cn1cc(COc2ccc(Cl)c3c2[C@@H](CN2CC4(CC4)CC2=O)N(C(=O)[C@@H]2CCCC[C@]2(C)C(=O)O)CC3)nn1 [Example 158, (1S,2R)-2-((S)-5-chloro-8-((1-methyl-1H-1,2,3-triazol-4-yl)methoxy)-1-((6-oxo-5-azaspiro[2.4]heptan-5-yl)methyl)-1,2,3,4-tetrahydroisoquinoline-2-carbonyl)-1-methylcyclohexane-1-carboxylic acid] | 6.3 nM | 1.2 nM
8 | Cn1nnc(COc2ccc(Cl)c3c2[C@@H](CN2CC4(CC4)CC2=O)N(C(=O)[C@@H]2CCCC[C@]2(C)C(=O)O)CC3)c1C1CC1 [Example 159, (1S,2R)-2-((S)-5-chloro-8-((5-cyclopropyl-1-methyl-1H-1,2,3-triazol-4-yl)methoxy)-1-((6-oxo-5-azaspiro[2.4]heptan-5-yl)methyl)-1,2,3,4-tetrahydroisoquinoline-2-carbonyl)-1-methylcyclohexane-1-carboxylic acid] | 6.7 nM | 0.22 nM
9 | C[C@@H]1CC(=O)N(C[C@@H]2c3c(OCc4cn(C)nn4)ccc(Cl)c3CCN2C(=O)[C@@H]2CCCC[C@]2(C)C(=O)O)C1 [Example 161, (1S,2R)-2-((S)-5-chloro-8-((1-methyl-1H-1,2,3-triazol-4-yl)methoxy)-(((R)-4-methyl-2-oxopyrrolidin-1-yl)methyl)-1,2,3,4-tetrahydroisoquinoline-2-carbonyl)-1-methylcyclohexane-1-carboxylic acid] | 7.9 nM | 11 nM
10 | COCc1c(COc2ccc(Cl)c3c2[C@@H](CN2C[C@H](C)CC2=O)N(C(=O)[C@@H]2CCCC[C@]2(C)C(=O)O)CC3)nnn1C [Example 162, (1S,2R)-2-((S)-5-chloro-8-((5-(methoxymethyl)-1-methyl-1H-1,2,3-triazol-4-yl)methoxy)-1-(((R)-4-methyl-2-oxopyrrolidin-1-yl)methyl)-1,2,3,4-tetrahydroisoquinoline-2-carbonyl)-1-methylcyclohexane-1-carboxylic acid] | 6.3 nM | 2.4 nM

The next lines start with results.

Row | IC50 [2] | Compound | EC50 [1]
11 | 5 nM | Cn1nnc(COc2ccc(Cl)c3c2[C@@H](CN2CC4(CC4)CC2=O)N(C(=O)[C@@H]2CCCC[C@]2(C)C(=O)O)CC3)c1C(F)(F)F [Example 150, (1S,2R)-2-((S)-5-chloro-8-((1-methyl-5-(trifluoromethyl)-1H-1,2,3-triazol-4-yl)methoxy)-1-((6-oxo-5-azaspiro [2.4]heptan-5-yl)methyl)-1,2,3,4-tetrahydroisoquinoline-2-carbonyl)-1-methylcyclohexane-1-carboxylic acid] | 0.97 nM
12 | 9 nM | Cn1nnc(COc2ccc(Cl)c3c2[C@@H](CN2CC4(CC4)CC2=O)N(C(=O)[C@@H]2CCC[C@]2(C)C(=O)O)CC3)c1C(F)(F)F [Example 153, (1S,2R)-2-((S)-5-chloro-8-((1-methyl-5-(trifluoromethyl)-1H-1,2,3-triazol-4-yl)methoxy)-1-((6-oxo-5-azaspiro [2.4]heptan-5-yl)methyl)-1,2,3,4-tetrahydroisoquinoline-2-carbonyl)-1-methylcyclopentane-1-carboxylic acid] | 7 nM
13 | 5.9 nM | Cc1onc(COc2ccc(Cl)c3c2[C@@H](CN2CC4(CC4)CC2=O)N(C(=O)[C@@H]2CCCC[C@]2(C)C(=O)O)CC3)c1C(F)F [Example 157, (1S,2R)-2-((S)-5-chloro-8-((4-(difluoromethyl)-5-methylisoxazol-3-yl)methoxy)-1-((6-oxo-5-azaspiro [2.4]heptan-5-yl)methyl)-1,2,3,4-tetrahydroisoquinoline-2-carbonyl)-1-methylcyclohexane-1-carboxylic acid] | 4.9 nM
14 | 5 nM | COCc1c(COc2ccc(Cl)c3c2[C@@H](CN2CC4(CC4)CC2=O)N(C(=O)[C@@H]2CCCC[C@]2(C)C(=O)O)CC3)nnn1C [Example 160, (1S,2R)-2-((S)-5-chloro-8-((5-(methoxymethyl)-1-methyl-1H-1,2,3-triazol-4-yl)methoxy)-1-((6-oxo-5-azaspiro [2.4]heptan-5-yl)methyl)-1,2,3,4-tetrahydroisoquinoline-2-carbonyl)-1-methylcyclohexane-1-carboxylic acid] | 0.72 nM
